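Cultured in 96-well plates, cells were exposed to test compound for 48 hours across five concentrations. GI50 = concentration required for 50% inhibition of growth.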 Activity calls are given as the source filed them. Cut-off read from the data, not from the text of the source: active = GI50 up to about 1.1 µM and inactive = higher.
Columns and labels:
Experiment in all cases: NCI-60 cell line screen, 48 h
[1] = test system: UACC-257
[2] = test system: NCI-H460
[3] = test system: SNB-75
[4] = test system: SF-268
[5] = test system: SF-295
[6] = test system: U-251
[7] = test system: RXF 393
[8] = test system: MOLT-4
[9] = test system: COLO 205
[10] = test system: TK-10
[11] = test system: HCC 2998
[12] = test system: SK-OV-3
[13] = test system: A498
[14] = test system: UACC-62
[15] = test system: IGROV-1
[16] = test system: 786-0
[17] = test system: Malme-3M
[18] = test system: HOP-92

Measured: GI50

COc1ccc(C(=O)C(c2ccc(OC)cc2)C2(O)C(=O)Nc3c2ccc(Cl)c3C)cc1 (configuration not stated)
inactive: [1] 92.9 µM | [2] > 100 µM | [3] 37.3 µM | [4] > 100 µM | [5] > 100 µM | [6] > 100 µM | [7] 94.2 µM | [8] > 100 µM | [9] > 100 µM | [10] > 100 µM | [11] > 100 µM | [12] > 100 µM | [13] > 100 µM | [14] > 100 µM | [15] > 100 µM | [16] > 100 µM | [17] > 100 µM

CC(C)(C)C(=O)OCC(COC(=O)C(C)(C)C)[N+](=O)[O-]
inactive: [1] > 100 µM | [2] > 100 µM | [3] > 100 µM | [4] > 100 µM | [5] > 100 µM | [6] > 100 µM | [7] > 100 µM | [8] 80.2 µM | [9] 57.1 µM | [10] > 100 µM | [11] > 100 µM | [12] > 100 µM | [14] 47.6 µM | [15] > 100 µM | [16] > 100 µM | [17] > 100 µM

CC(C)C1CC2C(=O)N(c3ccccc3)C(=O)C2c2[nH]c3ccccc3c21 (configuration not stated)
inactive: [1] 34.6 µM | [2] 4.63 µM | [3] 6.98 µM | [5] 6.9 µM | [6] 12 µM | [7] 21.3 µM | [8] 11.2 µM | [10] 23.1 µM | [11] > 100 µM | [12] 20.5 µM | [13] 32 µM | [14] 24.6 µM | [15] 34.5 µM | [16] 21.1 µM | [17] 25.8 µM

C[C@]12CC[C@@H]3c4ccccc4CC[C@H]3[C@@H]1CC[C@@H]2O
inactive: [1] > 100 µM | [2] 38.5 µM | [3] 54.7 µM | [4] > 100 µM | [5] > 100 µM | [6] > 100 µM | [7] 27.6 µM | [8] 45.5 µM | [9] 73.8 µM | [10] > 100 µM | [11] 61.7 µM | [12] > 100 µM | [14] 42.6 µM | [15] > 100 µM | [16] > 100 µM | [17] 44.2 µM

CC(=O)Nc1ccc(-c2nnc(SCC(=O)Nc3ccc([N+](=O)[O-])cc3)o2)cc1
inactive: [1] 12.1 µM | [2] 15.2 µM | [3] 13.2 µM | [18] 22.9 µM | [4] 14.1 µM | [5] 14.1 µM | [6] 14.7 µM | [7] 14.7 µM | [8] 12.2 µM | [9] 14.2 µM | [10] 14.6 µM | [12] 17.8 µM | [14] 9.84 µM | [15] 11 µM | [16] 11.3 µM | [17] 14 µM

COc1ccc(OC)c(NC(=O)C(=O)CC(=O)c2sc(-n3nc(-c4ccccc4)cc3-c3ccccc3)nc2C)c1
inactive: [1] > 100 µM | [2] > 100 µM | [3] > 100 µM | [5] > 100 µM | [6] > 100 µM | [7] > 100 µM | [8] > 100 µM | [9] > 100 µM | [10] > 100 µM | [11] > 100 µM | [12] > 100 µM | [13] > 100 µM | [14] > 100 µM | [15] > 100 µM | [16] > 100 µM | [17] > 100 µM

O=[N+]([O-])C1(CO)COC(CCc2ccccc2)OC1 (configuration not stated)
inactive: [1] > 100 µM | [2] > 100 µM | [3] > 100 µM | [18] 7.13 µM | [5] > 100 µM | [6] > 100 µM | [7] > 100 µM | [8] > 100 µM | [10] > 100 µM | [11] > 100 µM | [12] > 100 µM | [14] > 100 µM | [15] > 100 µM | [16] > 100 µM | [17] > 100 µM

CC(O)c1ccc(C(O)/C(=N\NC(=O)c2ccncc2)c2nc3ccc([N+](=O)[O-])cc3nc2O)cc1 (configuration not stated)
inactive: [1] > 100 µM | [2] > 100 µM | [3] > 100 µM | [18] > 100 µM | [4] > 100 µM | [5] > 100 µM | [6] > 100 µM | [7] > 100 µM | [8] > 100 µM | [9] > 100 µM | [11] 75.2 µM | [12] > 100 µM | [14] 59.2 µM | [15] > 100 µM | [16] > 100 µM | [17] > 100 µM

CCOC(=O)C1CCCCN1C(=O)OCc1ccccc1 (configuration not stated)
inactive: [1] > 100 µM | [2] > 100 µM | [3] > 100 µM | [4] > 100 µM | [5] > 100 µM | [6] 86.1 µM | [7] > 100 µM | [8] > 100 µM | [10] > 100 µM | [12] > 100 µM | [13] > 100 µM | [14] > 100 µM | [16] > 100 µM

N#CC(/C(=N\NC(=O)c1ccncc1)C(=O)Nc1ccc([N+](=O)[O-])cc1[N+](=O)[O-])c1nc(-c2ccc(Br)cc2)cs1 (configuration not stated)
inactive: [1] > 100 µM | [2] > 100 µM | [3] > 100 µM | [4] > 100 µM | [5] > 100 µM | [6] > 100 µM | [8] > 100 µM | [9] > 100 µM | [10] > 100 µM | [11] > 100 µM | [12] > 100 µM | [13] > 100 µM | [14] > 100 µM | [15] > 100 µM | [16] > 100 µM | [17] > 100 µM

COc1cc(O)c2c(c1)C(=O)c1cc3c(c(O)c1C2=O)C(OC1OC(C)C(OC)C(O)C1OC)C(OC)C(C)(O)C3=O (configuration not stated)
inactive: [1] 4.28 µM | [2] 2.72 µM | [3] 4.15 µM | [4] 5.55 µM | [5] 4.73 µM | [6] 5.33 µM | [8] 3.14 µM | [9] 3.09 µM | [10] 3.67 µM | [11] 5.02 µM | [12] 13.3 µM | [13] 5.53 µM | [15] 2.12 µM | [16] 5.28 µM | [17] 2.39 µM

CC1(C2COC(=O)C2)SCCCS1 (configuration not stated)
inactive: [1] > 100 µM | [2] > 100 µM | [3] > 100 µM | [18] > 100 µM | [4] > 100 µM | [5] > 100 µM | [7] > 100 µM | [8] > 100 µM | [9] > 100 µM | [10] > 100 µM | [11] > 100 µM | [12] 53.8 µM | [14] > 100 µM | [15] > 100 µM | [16] > 100 µM | [17] > 100 µM
